Source: article PMC12378621, “Benzo-ring modification on Malaria Box hit MMV008138: effects on antimalarial potency and microsomal stability” (RSC Medicinal Chemistry, 2025)
Where “and” joins values, the source holds several entries; their conditions need not be identical. Identical values can stand only once. Like-named read-outs stand apart in the source and are kept apart here.

Tests used:
[1] = system: P. falciparum (Dd2 strain); assay: ABS P. falciparum growth inhibition, SYBR Green I assay, 72 h endpoint; format: cell-based, Plasmodium falciparum; conditions: Plasmodium falciparum, DD2; control in growth inhibition / IPP rescue assays; read-out: EC50 of MMV008138 used as control
Experimental: Parasites were maintained in O-positive human erythrocytes (Grifols, Memphis, TN, USA) at 5% hematocrit in RPMI 1640 medium supplemented with 5 g L^−1 Albumax I (Gibco Life Technologies), 2 g L^−1 glucose (Sigma-Aldrich), 2.3 g L^−1 sodium bicarbonate (Sigma-Aldrich), 370 μM hypoxanthine (Sigma-Aldrich), 25 mM HEPES, and 20 mg L^−1 gentamicin (Gibco Life Technologies). The parasites were kept at 37 °C under reduced-oxygen conditions (5% CO2, 5% O2, and 90% N2).
[…]. MMV008138 (1) was used as control. The percentage of growth was normalized to that of untreated control parasites in the presence of 0.1% DMSO. Background determinations were made using uninfected erythrocytes. Two or more independent experiments in duplicate were performed. The EC50 values were calculated with GraphPad Prism 9 (GraphPad Software Ltd.) using nonlinear regression curve fitting with variable slope (four parameters) and represent the average and their standard error of the mean (S.E.M.). To assess whether 20a–e specifically targeted the apicoplast, the recovery of growth in the presence of inhibitor and isopentenyl diphosphate (IPP) was performed as described previously.[8] Briefly, parasites were grown in the presence or absence of 200 μM IPP along with a serial dilution (10 μM to 0.01 μM) or single concentration (10 or 20 μM) of drug. […] All conditions were set in 96-well half area plates using highly synchronous ring-stage parasite cultures (100 μL per well at 1% hematocrit and 1% parasitemia) and incubated for 72 h under normal culture conditions. Parasite growth was measured by the SYBR green I assay.

in vitro = conditions: male, mouse, microsomes
Experimental: Metabolic stability of 1 was studied in pooled male mouse liver microsomes (final concentration 0.5 mg/mL, 5 mM MgCl 2, 100 mM phosphate buffer). The final concentration of test […]
The mixture was pre-warmed 37°C for 5 min before addition of 50 μL of 10 mM NADPH solution at the final concentration of 1 mM and carried out at 37°C. 50 μL of ultra-pure H2O was used instead of NADPH solution in the […]
negative control. […] Drug […]
concentrations were determined using triple quad LC-MS (Table S5).
(§1) (1 picture or pasted object on this page, not shown here)

in vivo = conditions: mouse
Experimental: 3. Pharmacokinetics of 1 in mice
Pharmacokinetic analysis of 1 in mice was performed by Pharmaron (Beijing, China). Three mice each (23 ± 1 g) were used for oral (40 mg/kg, gavage, conscious) and for IV (10 mg/kg, lateral tail vein with anesthesia) administration. The vehicle for both routes wa s 20% DMSO, 60% PEG400 and 20% SBE-β-CD (30% w/v) in water. Stock concentrations were 4 mg/mL (both oral and IV respectively), and mice were dosed at 10.0 and 2.5 mL/kg (oral and IV respectively).
Quantitation was performed by triple-quad LC-MS.

[2] = system: Plasmodium berghei ANKA expressing luciferase (PbGFP-Luccon); assay: In vivo efficacy in P. berghei-infected mice (luminescence on Day 7)
Experimental: 2. In vivo efficacy studies of 1 (NYU) in P. berghei-infected mice (po and iv) Efficacy of 1 in P. berghei-infected mice was assessed at the Anti-Infectives Core Facility, Department of Microbiology, Grossman School of Medicine, New York University.
A. Oral Administration Protocol
Three groups of five female Swiss Webster mice weighing 25 to 30 g were used for vehicle […]
berghei ANKA expressing luciferase (PbGFP-Luccon) obtained from a donor infected mouse.10 […]
2 to 6 and imaged on day 7.
Figure S1. Dosing and imaging timeline of P. berghei-infected mice. […]
Day 7 as described in the text.
The vehicle for all groups was 0.5% (hydroxypropyl)methyl cellulose, 0.5% Tween-80.
For the surviving mice, o n day 7 after infection, mice were anesthetized by inhalation of isofluorane and injected via i.p. with 150 mg/kg of luciferase substrate dissolved in PBS (D-Luciferin Potassium Salt , Gold Biotechnology ).
Mice were imaged 5 to 10 min after inj ection of luciferin using an IVIS imager (Lumina II In Vivo Imaging System; Perkin -Elmer). The data acquisition and analysis were performed with LivingImage (Xenogen). Accumulated light intensity was measured in each mouse to determine the baseline infection levels before treatment .
as §1
B. IV Administration Protocol
One group of four female Swiss Webster mice weighing 25 to 30 g were used for vehicle control, and groups of five mice were used for 1 treatment (IV, 2 x 30 mg/kg/d) and the positive […]
On Day 0, mice were infected via intraperitoneal (i.p.) […]
from a donor infected mouse. 10 As shown below in Figure S2 (and legend), mice were treated […]
Figure S2. Dosing and imaging timeline of P. berghei-infected mice. Vehicle and 1 (30 mpk) treatments were administered IV twice -daily on Days 2-6. […]
administered i .p. once-daily. Mice were imaged on Day 7, as described in the text.
The vehicle for this study was 30%PEG, 40% Captisol (30%w/v solution).
Table S2. Luminescence Data after background subtraction for IV dosing of Vehicle, 1, and IP […]
Table S9. Concentration of 20c vs time in mice. […]
Figure S6. Dosing and imaging timeline of P. berghei-infected mice. […]

[3] = system: P. falciparum (Dd2 strain); conditions: SYBR Green I, 72 h endpoint; previously reported; read-out: Dd2 strain P. falciparum growth inhibition EC50; cited from earlier work
[4] = system: P. falciparum (Dd2 strain); design: method as in PMID 25754494; conditions: drug at 2.5 μM; previously reported; cited from earlier work
P. falciparum IspD = system: P. falciparum IspD; design: method as in PMID 26783558; conditions: cited from earlier work
P. vivax IspD = system: P. vivax IspD; design: method as in PMID 26783558; conditions: cited from earlier work
[5] = iv, 10 mg/kg, plasma concentration
[6] = po, 40 mg/kg, plasma concentration
[7] = Table S2, Days 2-6, imaged Day 7, Cmpd 1 30 mg/kg 2 x daily IV, CQ 20 mg/kg 1 x daily i.p.

O=C(O)[C@@H]1Cc2c([nH]c3ccccc23)[C@@H](c2ccc(Cl)cc2Cl)N1 [Compound 1, reference compound]
EC50 [1]: 170 ± 10 nM
half-life at 1 µM (in vitro): ~0.167 h
% remaining at 60 min (in vitro; 1 h, 1 µM): 103.9%
AUC(0-inf) (in vivo; iv, 10 mg/kg): 38.4 ± 3.8 µM·h
AUC(0-t) (in vivo; iv, 10 mg/kg): 36.1 ± 3.6 µM·h
C0 (in vivo; iv, 10 mg/kg): 86 ± 6.6 µM
Vd (in vivo; iv, 10 mg/kg): 3.5 ± 0.43 L/kg
clearance (in vivo; iv, 10 mg/kg): 12.1 ± 1.3 mL/min/kg
tlast (in vivo; iv, 10 mg/kg): 24 h
concentration at 24 h (in vivo; iv, 10 mg/kg, Cmin): 0.164 ± 0.017 µM
concentration at 0.083 h (in vivo; [5]): 58.6 ± 5.5 µM
concentration at 0.25 h (in vivo; [5]): 27.1 ± 3.7 µM
concentration at 0.5 h (in vivo; [5]): 14.8 ± 1.9 µM
concentration at 1 h (in vivo; [5]): 4.8 ± 1.7 µM
concentration at 2 h (in vivo; [5]): 1.3 ± 0.4 µM
concentration at 4 h (in vivo; [5]): 0.66 ± 0.04 µM
concentration at 8 h (in vivo; [5]): 0.51 ± 0.03 µM
concentration at 24 h (in vivo; [5]): 0.16 ± 0.02 µM
half-life (in vivo; iv, 10 mg/kg, t1/2): 9.9 ± 4 h
AUC0-inf (in vivo; po, 40 mg/kg): 88 µM·h
AUC(0-inf) (in vivo; po, 40 mg/kg): 88 ± 15 µM·h
AUC(0-t) (in vivo; po, 40 mg/kg): 79 ± 8.9 µM·h
Cmax (in vivo; po, 40 mg/kg): 46.1 ± 7.3 µM
Tmax (in vivo; po, 40 mg/kg): 0.25 h
tlast (in vivo; po, 40 mg/kg): 24 h
bioavailability (in vivo; po, 40 mg/kg, % F): 57%
bioavailability (in vivo; po, 40 mg/kg, %F): 57 ± 10%
concentration at 24 h (in vivo; po, 40 mg/kg, Cmin): 0.65 ± 0.35 µM
concentration at 0.25 h (in vivo; [6]): 46.1 ± 8 µM
concentration at 0.5 h (in vivo; [6]): 28.2 ± 4.1 µM
concentration at 1 h (in vivo; [6]): 12.7 ± 2.7 µM
concentration at 2 h (in vivo; [6]): 5.4 ± 0.31 µM
concentration at 4 h (in vivo; [6]): 3.2 ± 0.25 µM
concentration at 8 h (in vivo; [6]): 2.4 ± 0.45 µM
concentration at 24 h (in vivo; [6]): 0.64 ± 0.35 µM
half-life (in vivo; po, 40 mg/kg, t 1/2): 8.5 h
half-life (in vivo; po, 40 mg/kg, t1/2): 8.5 ± 0.24 h
reduction in parasitemia ([2]; P. berghei mouse model, IV dosing): no reduction in parasitemia
reduction in parasitemia / efficacy ([2]; P. berghei mouse model, oral dosing (20c 5 × 40 mg per kg per day)): no reduction in parasitemia
Live/Dead and luminescence, individual mice ([2]; Table S1, oral 1 x daily Days 2-6, imaged Day 7, Cmpd 1 45 mg/kg, CQ 20 mg/kg): Dead by Day 6 and Dead by Day 7 and 1.33E+06
Luminescence after background subtraction AVG [2, 7]: 1.39E+06
Luminescence after background subtraction, individual mice [2, 7]: 9.49E+05 and 1.50E+06 and 1.72E+06 and 2.00E+06 and 7.68E+05
treated mice dead by Day 7 (of 5) ([2]; oral 45 mg/kg/d Days 2-6): 4
EC50 [3]: 250 ± 70 nM
% recovery (200 μM IPP) [4]: 100%@2.5 μM ^c
IC50 (P. falciparum IspD): 47 nM
IC50 (P. vivax IspD): 310 nM
